Test results from the OligoGym collection.
After the bases stand the sugars from the 5' end (letter, count) and the backbone: PS all phosphorothioate, else s phosphorothioate and o phosphodiester by linkage. Methylation of C is not given here. e = 2'-O-(2-methoxyethyl) (MOE); k = constrained ethyl (cEt); d = 2'-deoxy (DNA); m = 2'-O-methyl

Biological target: HSD17B13
Conditions: ASO, HepaRG

| Sequence | target mRNA inhibition (1 µM) [%] | further results |
| --- | --- | --- |
| ACCAAACTTCCAGCAG (sugars k3 d1 m1 d8 k3, PS) | 54 | – |
| ACCAAACTTGCCCATA (sugars k3 d10 k3, PS) | 46 | – |
| ACCAACTATGTAATAG (sugars k3 d10 k3, PS) | 47 | – |
| ACCAATATGGGATGAG (sugars k3 d10 k3, PS) | 24 | – |
| ACCAATGCAGTTTGTA (sugars k3 d10 k3, PS) | 75 | target mRNA inhibition (0.02 µM): 6%; target mRNA inhibition (0.078 µM): 0%; target mRNA inhibition (0.313 µM): 32%; target mRNA inhibition (1.25 µM): 80%; target mRNA inhibition (5 µM): 90% |
| ACCACATACGCATGCG (sugars k3 d10 k3, PS) | 45 | – |
| ACCACGATTGTTACAT (sugars k3 d10 k3, PS) | 34 | – |
| ACCAGAATCCATTCTA (sugars k3 d10 k3, PS) | 60 | – |
| ACCATAGGACATGGAG (sugars k3 d10 k3, PS) | 62 | – |
| ACCCAGTATTCACAAA (sugars k3 d10 k3, PS) | 10 | – |
| ACCGTTTTGGGCTAAT (sugars k3 d10 k3, PS) | 78 | target mRNA inhibition (0.02 µM): 0%; target mRNA inhibition (0.078 µM): 0%; target mRNA inhibition (0.313 µM): 45%; target mRNA inhibition (1.25 µM): 81%; target mRNA inhibition (5 µM): 95% |
| ACCTTACCTTGTGCTT (sugars k3 d10 k3, PS) | 0 | – |
| ACGATTGTTACATCAC (sugars k3 d10 k3, PS) | 53 | – |
| ACGCCTAGTTTTCGGC (sugars k3 d10 k3, PS) | 7 | – |
| ACGGTGATCAAATGTA (sugars k3 d10 k3, PS) | 53 | – |
| ACGGTGATCAAATGTA (sugars kkdddddddddkekek, PS) | 33 | – |
| ACTAATATTGAGGCAC (sugars k3 d1 m1 d8 k3, PS) | 42 | – |
| ACTAATTTAGTCAACT (sugars k3 d10 k3, PS) | 18 | – |
| ACTACAAGAGGTTATT (sugars k3 d10 k3, PS) | 46 | – |
| ACTACATGACCTGGGT (sugars k3 d10 k3, PS) | 54 | – |
| ACTACATTAACACCAA (sugars k3 d10 k3, PS) | 46 | – |
| ACTACTTCAGTTAGCA (sugars k3 d10 k3, PS) | 79 | – |
| ACTAGAACTCCCAACC (sugars k3 d10 k3, PS) | 20 | – |
| ACTCCGTTATAAGTTT (sugars k3 d10 k3, PS) | 42 | – |

| Sequence | target mRNA inhibition (1 µM) [%] | further results |
| --- | --- | --- |
| ACTCTAAATACCCTTG (sugars k3 d10 k3, PS) | 16 | – |
| ACTCTATTGATTGGCT (sugars k3 d10 k3, PS) | 57 | – |
| ACTGACAACCCTTAAC (sugars k3 d10 k3, PS) | 10 | – |
| ACTGCTGCTAGTGCCA (sugars k3 d9 k3 e1, PS) | 57 | – |
| ACTGTATTAAGACAGT (sugars k3 d10 k3, PS) | 20 | – |
| ACTTCAGAGTTATACA (sugars k3 d10 k3, PS) | 35 | – |
| ACTTCTTACGACTTCA (sugars k3 d10 k3, PS) | 43 | – |
| ACTTGATCTCTTAGCT (sugars k3 d9 k3 e1, PS) | 59 | – |
| ACTTTCATAGGGAGAC (sugars k3 d10 k3, PS) | 80 | target mRNA inhibition (0.02 µM): 0%; target mRNA inhibition (0.078 µM): 8%; target mRNA inhibition (0.313 µM): 25%; target mRNA inhibition (1.25 µM): 69%; target mRNA inhibition (5 µM): 83% |
| ACTTTTAGGGAGGTAG (sugars k3 d10 k3, PS) | 20 | – |
| ACTTTTCCGTCTCACA (sugars k3 d10 k3, PS) | 89 | target mRNA inhibition (0.02 µM): 0%; target mRNA inhibition (0.078 µM): 19%; target mRNA inhibition (0.313 µM): 61%; target mRNA inhibition (1.25 µM): 88%; target mRNA inhibition (5 µM): 84% |
| AGAAATCTAAGAACCC (sugars k3 d10 k3, PS) | 25 | – |
| AGAACCAATATGCTCT (sugars k3 d10 k3, PS) | 38 | – |
| AGAACCAGGACTCTCC (sugars k3 d10 k3, PS) | 67 | – |
| AGAAGTATGTGAACTC (sugars k3 d10 k3, PS) | 41 | – |
| AGAATAGAGTTGCACC (sugars k3 d9 k3 e1, PS) | 58 | – |
| AGAATAGAGTTGCACC (sugars k3 d10 k3, PS) | 70 | – |
| AGACAATTAACATTCG (sugars k3 d10 k3, PS) | 62 | – |
| AGACAGTTGAGTAGTG (sugars k3 d10 k3, PS) | 63 | – |
| AGACCAAAAAGATGGC (sugars k3 d10 k3, PS) | 80 | target mRNA inhibition (0.02 µM): 4%; target mRNA inhibition (0.078 µM): 35%; target mRNA inhibition (0.313 µM): 69%; target mRNA inhibition (1.25 µM): 82%; target mRNA inhibition (5 µM): 72% |
| AGACCTCTGTGAAAGC (sugars k3 d10 k3, PS) | 50 | – |
| AGACTAAGGGACCAGG (sugars k3 d10 k3, PS) | 80 | target mRNA inhibition (0.02 µM): 22%; target mRNA inhibition (0.078 µM): 24%; target mRNA inhibition (0.313 µM): 56%; target mRNA inhibition (1.25 µM): 90%; target mRNA inhibition (5 µM): 94% |
| AGAGAGCGATAGATCT (sugars k3 d10 k3, PS) | 15 | – |
| AGAGAGTAATCAGTTT (sugars kkdddddddddkekek, PS) | 52 | – |

| Sequence | target mRNA inhibition (1 µM) [%] | further results |
| --- | --- | --- |
| AGAGCCAAACTGCTAC (sugars k3 d10 k3, PS) | 55 | – |
| AGAGGATAGTCCATGC (sugars k3 d10 k3, PS) | 74 | target mRNA inhibition (0.02 µM): 12%; target mRNA inhibition (0.078 µM): 19%; target mRNA inhibition (0.313 µM): 51%; target mRNA inhibition (1.25 µM): 73%; target mRNA inhibition (5 µM): 97% |
| AGAGGATAGTCCATGC (sugars kkdddddddddkekek, PS) | 70 | – |
| AGAGGCAAGGATACCT (sugars k3 d10 k3, PS) | 78 | target mRNA inhibition (0.02 µM): 5%; target mRNA inhibition (0.078 µM): 7%; target mRNA inhibition (0.313 µM): 39%; target mRNA inhibition (1.25 µM): 68%; target mRNA inhibition (5 µM): 40% |
| AGAGGCTAGGGAAATC (sugars kkdddddddddkekek, PS) | 59 | – |
| AGAGTCGGTCACCTTT (sugars k3 d10 k3, PS) | 71 | – |
| AGAGTTATCTGGTTTG (sugars k3 d10 k3, PS) | 56 | – |
| AGAGUTGCACCGTTTT (sugars k3 d1 m1 d8 k3, PS) | 68 | – |
| AGATGGGCAAGGCCAC (sugars k3 d10 k3, PS) | 59 | – |
| AGATGGTAAGGAGTAG (sugars k3 d10 k3, PS) | 26 | – |
| AGATTAGTCTTGATGT (sugars k3 d10 k3, PS) | 63 | – |
| AGATTGGAATGCTACT (sugars k3 d10 k3, PS) | 63 | – |
| AGATTTACTTCCTTGT (sugars k3 d10 k3, PS) | 41 | – |
| AGCGAATGTTAAAACT (sugars k3 d10 k3, PS) | 16 | – |
| AGCTAAGAGACACTTC (sugars k3 d10 k3, PS) | 41 | – |
| AGCTAAGTATACTTTC (sugars k3 d10 k3, PS) | 18 | – |
| AGCTACCTCCAAATTC (sugars k3 d10 k3, PS) | 0 | – |
| AGCTATAGGTAGCTAA (sugars k3 d10 k3, PS) | 0 | – |
| AGCTGAGTGGATTACA (sugars k3 d10 k3, PS) | 29 | – |
| AGCTTAAACTCCAATG (sugars k3 d10 k3, PS) | 40 | – |
| AGCTTGGAAGGAGACT (sugars k3 d10 k3, PS) | 69 | – |
| AGCTTTTGTCCACCTT (sugars k3 d9 k3 e1, PS) | 69 | – |
| AGCTTTTGTCCACCTT (sugars k3 d10 k3, PS) | 57 | – |
| AGGCACTAAAGGTTTC (sugars k3 d10 k3, PS) | 61 | – |

| Sequence | target mRNA inhibition (1 µM) [%] | further results |
| --- | --- | --- |
| AGGCTGTAAGAGTCAG (sugars k3 d10 k3, PS) | 74 | – |
| AGGGAATTTATCAAAC (sugars k3 d10 k3, PS) | 47 | – |
| AGGGAGGTAGCTTTTG (sugars k3 d10 k3, PS) | 46 | – |
| AGGTAGCTAATGTATG (sugars k3 d10 k3, PS) | 53 | – |
| AGGTAGCTTTTGTCCA (sugars k3 d1 m1 d8 k3, PS) | 59 | – |
| AGGTTTAGCAATTTAG (sugars k3 d10 k3, PS) | 54 | – |
| AGGTTTTGATACCAGT (sugars k3 d10 k3, PS) | 60 | – |
| AGTAACTTTATTAACG (sugars k3 d10 k3, PS) | 12 | – |
| AGTAAGGTAAAGTCTA (sugars k3 d10 k3, PS) | 55 | – |
| AGTAATAAAGTCCAGA (sugars k3 d10 k3, PS) | 43 | – |
| AGTAATCAGTTTTCCT (sugars k3 d10 k3, PS) | 65 | – |
| AGTAATTGCTATAGTA (sugars k3 d10 k3, PS) | 48 | – |
| AGTACAGTTCCTTTTC (sugars kkdddddddddkekek, PS) | 40 | – |
| AGTAGTGGAGCCAGAC (sugars k3 d10 k3, PS) | 39 | – |
| AGTAGTGTAAGCTGAG (sugars k3 d10 k3, PS) | 88 | target mRNA inhibition (0.02 µM): 0%; target mRNA inhibition (0.078 µM): 4%; target mRNA inhibition (0.313 µM): 50%; target mRNA inhibition (1.25 µM): 78%; target mRNA inhibition (5 µM): 92% |
| AGTATGACAACTGGAG (sugars k3 d10 k3, PS) | 15 | – |
| AGTATGTTTATGTAAG (sugars k3 d10 k3, PS) | 48 | – |
| AGTCATATTGAAAATC (sugars k3 d10 k3, PS) | 39 | – |
| AGTCCAGAATAGAGTT (sugars k3 d10 k3, PS) | 58 | – |
| AGTCGGATTATTTTTT (sugars k3 d10 k3, PS) | 42 | – |
| AGTCTTAAACCTTCCC (sugars k3 d9 k3 e1, PS) | 61 | – |
